# Results reported in patent US11576930B2, “Methods and compositions for treatment of multi-drug resistant tumors” (priority 2017, dated 2023).
# Experiments:
# [1] = system: CNE2; assay type: cell-based, human
# Method: (§1) Then, HCC97L (3×10^3 well^−1), Hep3B (4×10^3 well^−1), PLC (4×10^3 well^−1), CNE1 (1.75×10^3 well^−1), CNE2 (3.5×10^3 well^−1), HONE1 (2×10^3 well^−1) and SUNE1 (2×10^3 well^−1) were seeded in 96-well plates ([…]) and allowed to attach for 24 h. After that, human liver cancer cell lines were treated with 3 chemotherapeutic drugs separately at different concentrations (as indicated in FIG. 2) in the presence of the anti-mycoplasma antibiotics for 48 h. […] In the P37-ANXA2 interruption experiment, A2PP was dissolved in DMSO and HCC97L cells were pretreated with A2PP (as indicated in FIG. 3) 24 h before GEM or MX treatment. […] (5 mg/ml final concentration; MP Biomedicals, LLC, CA, USA) was added to each well. After 4 h incubation at 37° C., the medium was removed and 100 μL/well DMSO (GBCBIO Technologies, Guangzhou, China) was added. The plates were mixed by a thermomixer for 5 min at RT. Absorbance measures were made in a microplate reader (iMark, Bio-Rad Laboratories, CA, USA) at 570/655 nm.
# [2] = system: HONE1 cells; assay type: cell-based, human
# Method: as §1
# [3] = system: SUNE1 cells; assay type: cell-based, human
# Method: as §1
# [4] = system: HCC97L cells; assay: Cell morphology and MTT cytotoxicity of agent alone; assay type: cell-based, human; set-up: dose or concentration left out as unconfirmed; conditions: AZI
# Method: as §1
# [5] = system: Hep3B; assay: as above; assay type: cell-based, human; set-up: dose or concentration left out as unconfirmed; conditions: AZI
# Method: Then, HCC97L (3×10^3 well^−1), Hep3B (4×10^3 well^−1), PLC (4×10^3 well^−1), CNE1 (1.75×10^3 well^−1), CNE2 (3.5×10^3 well^−1), HONE1 (2×10^3 well^−1) and SUNE1 (2×10^3 well^−1) were seeded in 96-well plates (1004/well) and allowed to attach for 24 h. After that, human liver cancer cell lines were treated with 3 chemotherapeutic drugs separately at different concentrations (as indicated in FIG. 2) in the presence of the anti-mycoplasma antibiotics for 48 h. […] 104 of MTT (5 mg/ml final concentration; MP Biomedicals, LLC, CA, USA) was added to each well. After 4 h incubation at 37° C., the medium was removed and 100 μL/well DMSO (GBCBIO Technologies, Guangzhou, China) was added. The plates were mixed by a thermomixer for 5 min at RT. Absorbance measures were made in a microplate reader (iMark, Bio-Rad Laboratories, CA, USA) at 570/655 nm.
# [6] = system: mycoplasma; assay: Mycoplasma detection using quantitative real-time PCR in cancer cell lines; assay type: cell-based; set-up: dose or concentration left out as unconfirmed; conditions: AZI
# Method: Total DNA was extracted from 5×10^5 cells from each group by digestion at 70° C. for 10 min in 0.5% Tween-20, 50 mM Tris (pH 8.5), 1 mM EDTA, and 200 mg/L proteinase K, followed by phenol/chloroform/isoamyl alcohol extraction and sodium acetate precipitation. DNA precipitates were washed with 70% ethanol, dried, and dissolved in 20 μL of sterile water. The extracted DNA ([…], 1.2 μg) from the cells was added to […] of the reaction solution, containing PCR buffer (SuperRealPreMix, SYBR Green; Tiangen Biotech, Beijing, China) and primers pairs for mycoplasma detection and reference control (β-actin) with a final concentration of 0.12 μM for each primer, to a total volume of 10 μL. Quantitative real-time PCR (qPCR) was performed as the following profile: 95° C. for 1 min (preincubation), followed by 40 cycles at 95° C. for 10 s (denaturation), 60° C. for 30 s (annealing and elongation). The primers (Table 1) for mycoplasma detection were gifts from Prof. Zhongning Lin (School of Public Health, Xiamen University) including two forward primers for universal mycoplasmal detection, one forward primer to detect Myco M. pirum., one for Myco A. laidlawii. detection and a mix of degenerate primers to work as the reverse primers.
# [7] = system: HCC97L cells; assay: MTT assay, sensitivity to chemotherapeutic drugs with anti-mycoplasma agent or A2PP; assay type: cell-based, human; conditions: non-cytotoxic concentration of MXF or AZI; chemotherapeutic 48 h
# Method: as §1
# [8] = system: Hep3B cells; assay: MTT assay, sensitivity to chemotherapeutic drugs with anti-mycoplasma antibiotics; assay type: cell-based, human; conditions: non-cytotoxic concentration of MXF or AZI; chemotherapeutic 48 h
# Method: as §1
# [9] = system: PLC/PRF/5 cell line; assay: as above; assay type: cell-based, human; conditions: non-cytotoxic concentration of MXF or AZI; chemotherapeutic 48 h
# Method: as §1
SMILES,sensitivity of CNE2 cells to 5-FU [1],sensitivity of HONE1 cells to 5-FU [2],sensitivity of SUNE1 cells to 5-FU [3],toxicity to cells (cell morphology and MTT assay) [4],toxicity to cells (cell morphology and MTT assay) [5],anti-mycoplasma effect (Real Time PCR) ([6]; HCC97L cells),anti-mycoplasma effect (Real Time PCR) ([6]; Hep3B cells),anti-mycoplasma effect (Real Time PCR) ([6]; PLC/PRF/5 cell line),sensitivity of HCC97L cells to CDDP [7],sensitivity of HCC97L cells to GEM [7],sensitivity of HCC97L cells to MX [7],sensitivity of Hep3B cells to GEM [8],sensitivity of Hep3B cells to MX [8],"efficacy of the anti-tumor drugs (CDDP, GEM, MX) in PLC/PRF/5 cell line [9]"
"COc1c(N2C[C@@H]3CCCN[C@@H]3C2)c(F)cc2c(=O)c(C(=O)O)cn(C3CC3)c12 [MXF, Moxifloxacin]",enhanced,enhanced,improved,–,–,–,–,–,–,–,–,–,–,–
"CC[C@H]1OC(=O)[C@H](C)[C@@H](O[C@H]2C[C@@](C)(OC)[C@@H](O)[C@H](C)O2)[C@H](C)[C@@H](O[C@@H]2O[C@H](C)C[C@H](N(C)C)[C@H]2O)[C@](C)(O)C[C@@H](C)CN(C)[C@H](C)[C@@H](O)[C@]1(C)O [AZI, azithromycin]",–,–,–,non-toxic,non-toxic,removed mycoplasma significantly,removed mycoplasma significantly,mycoplasma remained intact,enhanced,enhanced,enhanced,enhanced,enhanced,neither MXF nor AZI improved the efficacy
